Assays:
S1P1 [1] = target: T1, S1P1 (Homo sapiens, UniProt P21453); test: DELFIA GTP-Eu Binding Assay (Assay 3b); format: biochemical; parameters: purchased Lonza; host or cells: CHO cell membranes; details: read-out: Assay 3b EC50
How it was run: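 CHO membranes expressing human S1P1 (40 μg/mL) incubated 30 min at room temperature with compound (10-point, 3-fold, top 10 μM, 1% DMSO) in HEPES buffer with 2 μM GDP, MgCl2, NaCl, saponin, then 30 min with 10 nM GTP-Eu. Time-resolved fluorescence (340/615 nm) after washing; percent activity relative to 1 μM S1P, EC50 from curve fit.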

hS1P1R (hEdg1) = target: T2, hS1P1R (hEdg1) (Homo sapiens, UniProt P21453); test: hS1P1R GTPγS Binding Assay (Assay 3a); format: biochemical
T2 construct: purchased Lonza
T2 sequence (P21453 whole entry): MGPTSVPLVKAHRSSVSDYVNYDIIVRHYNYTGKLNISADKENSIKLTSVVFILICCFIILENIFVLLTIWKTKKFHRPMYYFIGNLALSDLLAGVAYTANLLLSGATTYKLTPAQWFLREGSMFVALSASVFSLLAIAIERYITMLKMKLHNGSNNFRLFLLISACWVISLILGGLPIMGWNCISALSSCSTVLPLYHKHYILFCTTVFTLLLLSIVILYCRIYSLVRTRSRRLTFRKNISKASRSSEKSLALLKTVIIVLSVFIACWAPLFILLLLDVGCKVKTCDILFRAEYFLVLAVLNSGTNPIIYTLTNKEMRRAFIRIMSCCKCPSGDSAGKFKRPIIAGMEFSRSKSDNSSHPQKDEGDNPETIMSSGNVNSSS
How it was run: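 Human S1P1 receptor membranes (4 μg) incubated 1 h at room temperature with 30 μM GDP, 0.1 nM [35S]GTPγS, 0.25% fatty-acid-free BSA and serially diluted agonist in pH 7.9 Tris buffer with Mg2+ and EGTA. Bound radioactivity read by WGA SPA after a further 1 h; EC50 reported unless noted.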

S1P1 [2] = target: T1, S1P1; test: CNG cAMP Assay (Assay 1); format: cell-based; parameters: host or cells: HEK293 cells expressing the CNG channel; details: read-out: Assay 1 EC50
How it was run: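 cAMP-gated CNG membrane-potential read-out (350/590 nm, T90/T0 ratio) in S1P1/CNG HEK293 cells after 90 min with compound plus NECA 500 nM, S1P 10 nM (EC95), Ro 20-1724 25 μM. Ten 3-fold points from 10 μM, 1.8% DMSO; percent activity vs NECA-only control gives EC50.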

T1 sequence (P21453 whole entry): as above

| Compound | EC50 (S1P1 [1]) | EC50 (hS1P1R (hEdg1)) | EC50 (S1P1 [2]) |
| --- | --- | --- | --- |
| Cc1cc(CCC(=O)O)c(Cl)cc1-c1noc(-c2cn3cc(C(F)(F)F)cc(Cl)c3n2)n1 [Entry 56] | ≤ 100 nM | ≤ 100 nM | ≤ 100 nM |
| C[C@H](CO)Oc1cc(Cl)c(-c2noc(-c3cn4cc(C(F)(F)F)cc(Cl)c4n3)n2)cc1F [Example 93, (2R)-2-[(5-chloro-4-{5-[8-chloro-6-(trifluoromethyl)imidazo[1,2-a]pyridin-2-yl]-1,2,4-oxadiazol-3-yl}-2-fluorophenyl)oxy]propan-1-ol] | ≤ 100 nM | ≤ 100 nM | ≤ 100 nM |
| O=C(O)CCc1cc(Cl)c(-c2nnc(-c3cn4cc(C(F)(F)F)cc(Cl)c4n3)s2)cc1F [Example 176, 3-(5-chloro-4-{5-[8-chloro-6-(trifluoromethyl)imidazo[1,2-a]pyridin-2-yl]-1,3,4-thiadiazol-2-yl}-2-fluorophenyl)propanoic acid] | ≤ 100 nM | ≤ 100 nM | ≤ 100 nM |
| OCC(O)COc1cc(Cl)c(-c2noc(-c3cn4cc(C(F)(F)F)cc(Cl)c4n3)n2)cc1Cl (stereo not drawn) [Example 208, 3-[(2,5-dichloro-4-{5-[8-chloro-6-(trifluoromethyl)imidazo[1,2-a]pyridin-2-yl]-1,2,4-oxadiazol-3-yl}phenyl)oxy]propane-1,2-diol] | 100 to 500 nM | ≤ 100 nM | ≤ 100 nM |
| OCCOc1cc(Cl)c(-c2noc(-c3cn4cc(C(F)(F)F)cc(Cl)c4n3)n2)cc1F [Example 263, 2-[(5-chloro-4-{5-[8-chloro-6-(trifluoromethyl)imidazo[1,2-a]pyridin-2-yl]-1,2,4-oxadiazol-3-yl}-2-fluorophenyl)oxy]ethanol] | 100 to 500 nM | ≤ 100 nM | ≤ 100 nM |
| CC(C)Oc1cc(Cl)c2nc(-c3nc(-c4cc(F)c(CCC(=O)O)cc4Cl)no3)cn2c1 [Example 301, 3-[5-chloro-4-(5-{8-chloro-6-[(1-methylethyl)oxy]imidazo[1,2-a]pyridin-2-yl}-1,2,4-oxadiazol-3-yl)-2-fluorophenyl]propanoic acid] | ≤ 100 nM | 100 to 500 nM | ≤ 100 nM |

Second part, the compound after the results:

| EC50 (S1P1 [1]) | EC50 (hS1P1R (hEdg1)) | EC50 (S1P1 [2]) | Compound |
| --- | --- | --- | --- |
| ≤ 100 nM | ≤ 100 nM | ≤ 100 nM | O=C(O)CCc1cc(Cl)c(-c2noc(-c3cn4cc(C(F)(F)F)cc(Cl)c4n3)n2)cc1F [Entry 24] |
| 100 to 500 nM | ≤ 100 nM | ≤ 100 nM | O=C(O)CCc1cc(Cl)c(-c2noc(-c3cn4cc(C(F)(F)F)cc(Br)c4n3)n2)cc1F [Entry 49] |
| ≤ 100 nM | ≤ 100 nM | ≤ 100 nM | O=C(O)CCc1cc(Cl)c(-c2nnc(-c3cn4cc(C(F)(F)F)cc(Br)c4n3)s2)cc1F [Example 177, 3-(4-{5-[8-bromo-6-(trifluoromethyl)imidazo[1,2-a]pyridin-2-yl]-1,3,4-thiadiazol-2-yl}-5-chloro-2-fluorophenyl)propanoic acid] |
| 100 to 500 nM | 100 to 500 nM | ≤ 100 nM | O=C(O)CCc1cc(Cl)c(-c2nc(-c3cn4cc(C(F)(F)F)cc(Cl)c4n3)no2)cc1F [Example 233, 3-(5-chloro-4-{3-[8-chloro-6-(trifluoromethyl)imidazo[1,2-a]pyridin-2-yl]-1,2,4-oxadiazol-5-yl}-2-fluorophenyl)propanoic acid] |
| ≤ 100 nM | ≤ 100 nM | ≤ 100 nM | O=C(O)CCc1cc(Cl)c(-c2noc(-c3cn4cc(C(F)(F)F)cc(Cl)c4n3)n2)cc1Cl [Example 242, 3-(2,5-dichloro-4-{5-[8-chloro-6-(trifluoromethyl)imidazo[1,2-a]pyridin-2-yl]-1,2,4-oxadiazol-3-yl}phenyl)propanoic acid] |
| ≤ 100 nM | 100 to 500 nM | ≤ 100 nM | O=C(O)CCc1cc(Cl)c(-c2noc(-c3cn4cc(I)cc(Cl)c4n3)n2)cc1F [Example 302, 3-{5-chloro-4-[5-(8-chloro-6-iodoimidazo[1,2-a]pyridin-2-yl)-1,2,4-oxadiazol-3-yl]-2-fluorophenyl}propanoic acid] |

Source: patent publication US20100160369A1, “S1P1 Agonists and Methods of Making And Using” (EXELIXIS, INC., priority 2008, published 2010)
